For this assay, the system named is L1210 leukemia ip in BDF1 mice, survival T/C. The assay is described as follows: NCI In Vivo Anticancer Drug Screen. Data for tumor model L1210 Leukemia (intraperitoneal) in B6D2F1 (BDF1) mice. The settings on record: endpoint: mean survival time, higher = longer survival. The method, boiled down: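 Transplantable tumor model; survival measured in treated vs vehicle control mice. Value = treated/control.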

[1] abbreviates: dose: 25.0 mg/kg/injection, schedule: Q04DX003 (ip), vehicle: saline.
The mark [2] stands for this setting: dose: 50.0 mg/kg/injection, schedule: Q04DX003 (ip), vehicle: saline.
Setting [3] is: dose: 100.0 mg/kg/injection, schedule: Q04DX003 (ip), vehicle: saline.
Where [4] appears, read: dose: 100.0 mg/kg/injection, schedule: Q01DX009 (ip), vehicle: saline.
Where [5] appears, read: dose: 400.0 mg/kg/injection, schedule: Q04DX003 (ip), vehicle: saline.
Where [6] appears, read: dose: 100.0 mg/kg/injection, schedule: Q04DX003 (ip), vehicle: saline with Tween-80.
[7] abbreviates: dose: 200.0 mg/kg/injection, schedule: Q04DX003 (ip), vehicle: saline with Tween-80.
Where [8] appears, read: dose: 400.0 mg/kg/injection, schedule: Q04DX003 (ip), vehicle: saline with Tween-80.
Setting [9] is: dose: 100.0 mg/kg/injection, schedule: Q04DX002 (ip), vehicle: Klucel (hydroxypropylcellulose) (HPC).
Setting [10] is: dose: 200.0 mg/kg/injection, schedule: Q04DX002 (ip), vehicle: Klucel (hydroxypropylcellulose) (HPC).
Setting [11] is: dose: 200.0 mg/kg/injection, schedule: Q01DX009 (ip), vehicle: saline.
Setting [12] is: dose: 200.0 mg/kg/injection, schedule: Q04DX003 (ip), vehicle: saline.
The mark [13] stands for this setting: dose: 400.0 mg/kg/injection, schedule: Q01DX009 (ip), vehicle: saline.

The values that follow come from PubChem BioAssay AID248 (DTP/NCI, 2004).

“And” between values parts separate entries of the source, which are not always exact repeats. Identical values can stand only once. Toxic doses and inconclusive results are not listed.

Regarding `OC1C2CCN(CC2)C1CN1CC=C(c2ccccc2)CC1` (stereo not drawn), the T/C is, setting by setting: under setting [1], 104 % of control; under setting [2], 101 % of control; under setting [3], 98 % of control.

Consider `CCN(CC)CCNc1cc(C)nc(/N=C(\N)Nc2ccc(OCc3ccccc3)cc2)n1`, for which the T/C runs as follows: (dose: 6.25 mg/kg/injection, schedule: Q01DX009 (ip), vehicle: saline with Tween-80) 100 % of control; (dose: 6.25 mg/kg/injection, schedule: Q04DX003 (ip), vehicle: saline with Tween-80) 103 % of control; (dose: 12.5 mg/kg/injection, schedule: Q01DX009 (ip), vehicle: saline with Tween-80) 98 % of control; (dose: 12.5 mg/kg/injection, schedule: Q04DX003 (ip), vehicle: saline with Tween-80) 101 % of control; (dose: 25.0 mg/kg/injection, schedule: Q04DX003 (ip), vehicle: saline with Tween-80) 103 % of control.

As to `COc1ccc(N2CSC(=S)N(c3ccc(OC)cc3)C2)cc1`, the T/C (dose: 25.0 mg/kg/injection, schedule: Q01DX009 (ip), vehicle: saline) was 96 % of control; the T/C (dose: 50.0 mg/kg/injection, schedule: Q01DX009 (ip), vehicle: saline) was 93 % of control; the T/C under setting [4] is 95 % of control; the T/C under setting [5] is 91 % of control.

Consider `CCOC(=O)Nc1ccc(C)c(Cl)c1`, for which the T/C (dose: 100.0 mg/kg/injection, schedule: Q01DX009 (ip), vehicle: Klucel (hydroxypropylcellulose) (HPC)) was 105 % of control; the T/C (dose: 200.0 mg/kg/injection, schedule: Q01DX009 (ip), vehicle: Klucel (hydroxypropylcellulose) (HPC)) was 108 % of control; the T/C (dose: 400.0 mg/kg/injection, schedule: Q01DX009 (ip), vehicle: Klucel (hydroxypropylcellulose) (HPC)) was 103 % of control.

On to `BrCCOC1CCCCO1` (stereo not drawn), for which the T/C reads like this: (dose: 25.0 mg/kg/injection, schedule: Q01DX005 (ip), vehicle: saline) 105 % of control; (dose: 50.0 mg/kg/injection, schedule: Q01DX005 (ip), vehicle: saline) 117 % of control; (dose: 100.0 mg/kg/injection, schedule: Q01DX005 (ip), vehicle: saline) 107 % of control; (dose: 200.0 mg/kg/injection, schedule: Q01DX005 (ip), vehicle: saline) 105 % of control.

Consider `CCC(=O)n1ncc2ccc([N+](=O)[O-])cc21`, for which the T/C is 103 % of control under setting [6], 88 % of control under setting [7] and 93 % of control under setting [8].

Regarding `C[N+]1(C)C2CCCC1CCC2`, the T/C by setting is: (dose: 3.12 mg/kg/injection, schedule: Q04DX002 (ip), vehicle: Klucel (hydroxypropylcellulose) (HPC)) 93 % of control; (dose: 6.25 mg/kg/injection, schedule: Q04DX002 (ip), vehicle: Klucel (hydroxypropylcellulose) (HPC)) 104 % of control; (dose: 12.5 mg/kg/injection, schedule: Q04DX002 (ip), vehicle: Klucel (hydroxypropylcellulose) (HPC)) 90 % of control.

With `CCCCCCCCCCCCCc1nc(N)nc(NCCCC)n1`, the T/C under setting [9] is 92 % of control; the T/C under setting [10] is 89 % of control; the T/C (dose: 400.0 mg/kg/injection, schedule: Q04DX002 (ip), vehicle: Klucel (hydroxypropylcellulose) (HPC)) was 100 % of control.

With `COc1ccc(C(=O)P(=O)(OC)OC)cc1`, the T/C reads like this: under setting [6], 106 % of control; under setting [7], 104 % of control; under setting [8], 98 % of control.

As for `O=c1oc2ccc(Cl)cc2c(OCCO)c1Cl`, the T/C was 94 % of control under setting [6], 96 % of control under setting [7] and 86 % of control under setting [8].

For `CNC(=Nc1ccc(NC(=O)c2ccc(C(=O)Nc3ccc(N=C(NC)c4ccccc4)cc3)cc2)cc1)c1ccccc1`, the T/C reads like this: (dose: 3.75 mg/kg/injection, schedule: Q01DX Z (ip), vehicle: saline) 106 % of control; (dose: 7.5 mg/kg/injection, schedule: Q01DX Z (ip), vehicle: saline) 100 % of control; (dose: 15.0 mg/kg/injection, schedule: Q01DX Z (ip), vehicle: other) 91 % of control; (dose: 15.0 mg/kg/injection, schedule: Q01DX Z (ip), vehicle: saline) 105 % of control.

For the molecule `C=CCNC(=O)/C=C/C(=O)O`, the T/C reads like this: under setting [4], 95 % of control; under setting [11], 93 % of control.

For `O=C(NC(CO)C(O)c1ccc(N=Nc2cccc3ccccc23)cc1)C(Cl)Cl` (stereo not drawn), the T/C runs as follows: under setting [6], 101 % of control; under setting [7], 95 % of control; under setting [8], 93 % of control.

Turning to `C=C(C)C1CCCC(Cc2cccc3c(Cl)cccc23)C1` (stereo not drawn), the T/C runs as follows: (dose: 100.0 mg/kg/injection, schedule: Q01DX001 (ip), vehicle: gum acacia) 97 % of control; (dose: 200.0 mg/kg/injection, schedule: Q01DX001 (ip), vehicle: gum acacia) 94 % of control; (dose: 400.0 mg/kg/injection, schedule: Q01DX001 (ip), vehicle: gum acacia) 99 % of control.

Consider `C1CN1P1(N2CC2)=NP(N2CC2)(N2CC2)=NP(N2CC2)(N2CC2)=N1`, for which the T/C was 159 % of control (dose: 10.0 mg/kg/injection, schedule: Q01DX009 (ip), vehicle: saline); 104 % of control (dose: 20.0 mg/kg/injection, schedule: Q01DX009 (ip), vehicle: saline); 162 % of control (dose: 75.0 mg/kg/injection, schedule: Q01DX001 (ip), vehicle: saline).

Regarding `CCCCCCCCCCCCc1ccc(CS)cc1`, the T/C by setting is: under setting [4], 98 % of control; under setting [3], 92 % of control; under setting [11], 101 % of control; under setting [12], 91 % of control; under setting [13], 101 % of control; under setting [5], 93 % of control.

Take `CC(=O)NC1CCCCC1`: the T/C under setting [6] is 95 % of control, the T/C under setting [7] is 98 % of control and the T/C under setting [8] was 92 % of control.

`CC(=O)/C=C(\C)OC1CCCCC1`: the T/C under setting [6] is 98 % of control, the T/C under setting [7] is 95 % of control and the T/C under setting [8] is 91 % of control.

Take `N#Cc1nc2c(nc1C#N)CCCC2`: the T/C by setting is: (dose: 6.25 mg/kg/injection, schedule: Q04DX003 (ip), vehicle: Klucel (hydroxypropylcellulose) (HPC)) 98 % of control; (dose: 12.5 mg/kg/injection, schedule: Q04DX003 (ip), vehicle: Klucel (hydroxypropylcellulose) (HPC)) 95 % of control; (dose: 25.0 mg/kg/injection, schedule: Q01DX001 (ip), vehicle: Klucel (hydroxypropylcellulose) (HPC)) 96 % of control; (dose: 25.0 mg/kg/injection, schedule: Q04DX003 (ip), vehicle: Klucel (hydroxypropylcellulose) (HPC)) 97 % of control and 102 % of control; (dose: 50.0 mg/kg/injection, schedule: Q01DX001 (ip), vehicle: Klucel (hydroxypropylcellulose) (HPC)) 105 % of control; (dose: 100.0 mg/kg/injection, schedule: Q01DX001 (ip), vehicle: Klucel (hydroxypropylcellulose) (HPC)) 104 % of control.

With `O=C1c2cccc3cccc(c23)C(=O)N1CCCN1C(=O)c2cccc3cccc(c23)C1=O`, the T/C by setting is: under setting [9], 88 % of control; under setting [10], 98 % of control.

As for `C=CC(C)C1CCC2(C)C3=C(C(=O)CC12C)C1(C)C/C(=N/O)C(O)C(C)(C)C1=C(O)C3=O` (stereo not drawn), the T/C is, setting by setting: under setting [3], 98 % of control; under setting [12], 95 % of control; under setting [5], 98 % of control.

With `O=C(O)COc1ccc(Cl)cc1Cl` (tested in a mixture with another compound), the T/C is 102 % of control under setting [1]; 98 % of control under setting [2]; 93 % of control (dose: 100.0 mg/kg/injection, schedule: Q01DX001 (ip), vehicle: carboxymethylcellulose (CMC)); 90 % of control (dose: 100.0 mg/kg/injection, schedule: Q04DX003 (ip), vehicle: other); 95 % of control (dose: 200.0 mg/kg/injection, schedule: Q04DX003 (ip), vehicle: other); 115 % of control (dose: 400.0 mg/kg/injection, schedule: Q04DX003 (ip), vehicle: other).

As for `N=C(N=c1cc(C(=O)NC(=N)NC(=N)Nc2ccccc2)n(C(=N)NC(=N)Nc2ccccc2)c(C(=O)NC(=N)NC(=N)Nc2ccccc2)c1)NC(=N)Nc1ccccc1`, the T/C under setting [4] is 105 % of control, the T/C under setting [11] was 94 % of control and the T/C under setting [13] was 87 % of control.

Regarding `O=C(O)c1cc(Cl)ccc1O`, the T/C was 100 % of control (dose: 100.0 mg/kg/injection, schedule: Q04DX002 (ip), vehicle: other) and 103 % of control (dose: 200.0 mg/kg/injection, schedule: Q04DX002 (ip), vehicle: other).
